Like-named read-outs stand apart in the source and are kept apart here.
Molecular target: XIAP BIR3 (N-His-Tb-BIR3(241-356, XIAP)) (Homo sapiens (Human), UniProt P98170)
Assay type: binding
Details: read-out: XIAP BIR3 FPA IC50
[1] = 130 nM N-His-Tb-BIR3(241-356, XIAP), 1.4 nM fluoresceinated modified SMAC peptide, 60 minutes room temperature

Sequence of XIAP BIR3 (N-His-Tb-BIR3(241-356, XIAP)) (P98170 241-356): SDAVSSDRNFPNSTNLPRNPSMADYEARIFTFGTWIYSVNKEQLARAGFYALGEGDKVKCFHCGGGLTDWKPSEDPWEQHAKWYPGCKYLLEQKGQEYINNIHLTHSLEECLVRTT

| Compound | IC50 [1] [nM] | IC50 [nM] |
| --- | --- | --- |
| CN[C@@H](C)C(=O)N[C@H](C(=O)N1C[C@@H](NC(=O)n2ccc3cc(CN(C(=O)[C@@H]4Cc5ccccc5CN4C(=O)[C@@H](NC(=O)[C@H](C)NC)C(C)(C)C)C(COC)c4ccccc4)ccc32)C[C@H]1C(=O)N[C@@H]1CCCc2ccccc21)C(C)(C)C (stereo in doubt) [Example 9, (S)-2-((S)-3,3-Dimethyl-2-((S)-2-(methylamino)propanamido)butanoyl)-N-((1-(((3S,5S)-1-((S)-3,3-dimethyl-2-((S)-2-(methylamino)propanamido)butanoyl)-5-(((R)-1,2,3,4-tetrahydronaphthalen-1-yl)carbamoyl)pyrrolidin-3-yl)carbamoyl)-1H-indol-5-yl)methyl)-N-((S)-2-methoxy-1-phenylethyl)-1,2,3,4-tetrahydroisoquinoline-3-carboxamide] | 130 |  |
| CNC(C)C(=O)N[C@H](C(=O)N1C[C@@H](NC(=O)c2ccc(C(=O)N(C[C@@H]3Cc4ccccc4CN3C(=O)[C@@H](NC(=O)[C@H](C)NC)C(C)(C)C)[C@H](C)Cc3ccccc3F)cc2)C[C@H]1C(=O)N[C@@H]1CCCc2ccccc21)C(C)(C)C (stereo in doubt) [Example 17, N^1-(((S)-2-((S)-3,3-dimethyl-2-((S)-2-(methylamino)propanamido)butanoyl)-1,2,3,4-tetra-hydroisoquinolin-3-yl)methyl)-N^4-((3S,5S)-1-((S)-3,3-dimethyl-2-((S)-2-(methyl-amino)propanamido)butanoyl)-5-(((R)-1,2,3,4-tetrahydro-naphthalen-1-yl)carbamoyl)pyrrolidin-3-yl)-N^1-((R)-1-(2-fluorophenyl)propan-2-yl) terephthalamide] | 100 |  |
| CN[C@@H](C)C(=O)N[C@H](C(=O)N1CC(NC(=O)c2cccc(CN(C(=O)[C@@H]3Cc4ccccc4CN3C(=O)[C@@H](NC(=O)[C@H](C)NC)C(C)(C)C)C(COC)c3ccccc3)c2)C[C@H]1C(=O)NC1CCCc2ccccc21)C(C)(C)C (stereo in doubt) [Example 39, (S)-2-((S)-3,3-Dimethyl-2-((S)-2-(methylamino)propanamido)butanoyl)-N-(3-(((3S,5S)-1-((S)-3,3-dimethyl-2-((S)-2-(methylamino)propanamido)butanoyl)-5-(((R)-1,2,3,4-tetrahydronaphthalen-1-yl)carbamoyl)pyrrolidin-3-yl)carbamoyl)benzyl)-N-((S)-2-methoxy-1-phenylethyl)-1,2,3,4-tetrahydroisoquinoline-3-carboxamide] | 80 |  |
| CN[C@@H](C)C(=O)N[C@H](C(=O)N1CC(NC(=O)CN(C(=O)[C@@H]2Cc3ccccc3CN2C(=O)[C@@H](NC(=O)[C@H](C)NC)C(C)(C)C)C(COC)c2ccccc2)C[C@H]1C(=O)NC1CCCc2ccccc21)C(C)(C)C (stereo in doubt) [Example 40, (S)-2-((S)-3,3-Dimethyl-2-((S)-2-(methylamino)propanamido)butanoyl)-N-(2-(((3S,5S)-1-((S)-3,3-dimethyl-2-((S)-2-(methylamino)propanamido)butanoyl)-5-(((R)-1,2,3,4-tetrahydronaphthalen-1-yl)carbamoyl)pyrrolidin-3-yl)amino)-2-oxoethyl)-N-((S)-2-methoxy-1-phenylethyl)-1,2,3,4-tetrahydroisoquinoline-3-carboxamide] |  | 60 |
| CN[C@@H](C)C(=O)N[C@H](C(=O)N1C[C@@H](NC(=O)c2ccc(CN(CCc3ccccc3)C(=O)[C@@H]3Cc4ccccc4CN3C(=O)[C@@H](NC(=O)[C@H](C)NC)C(C)(C)C)cc2)C[C@H]1C(=O)N[C@@H]1CCCc2ccccc21)C(C)(C)C [Example 2, (S)-2-((S)-3,3-Dimethyl-2-((S)-2-(methylamino)propanamido)butanoyl)-N-(4-(((3S,5S)-1-((S)-3,3-dimethyl-2-((S)-2-(methylamino)propanamido)butanoyl)-5-(((R)-1,2,3,4-tetrahydronaphthalen-1-yl)carbamoyl)pyrrolidin-3-yl)carbamoyl)benzyl)-N-phenethyl-1,2,3,4-tetrahydroisoquinoline-3-carboxamide] | 30 |  |
